In patent US20230165831A1, “METHOD AND COMPOSITION FOR RENDERING CANCER CELLS SUSCEPTIBLE TO TREATMENT BY TARGETED ONCOGENETIC DRIVERS” (IMPACT BIOLIFE SCIENCE, INC., priority 2021, published 2023):
Like-named read-outs stand apart in the source and are kept apart here.

Experiments:
[1] = test system: glioblastoma line U87MG cells; test: CTG (CellTiter-Glo) cell viability assay, 6×6 combo matrix, 72 h, U87MG; conditions: Homo sapiens, U-87 MG;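 also: U87MG cells seeded at 2000 per well, exposed 72 h, viability read by CellTiter-Glo luminescence, inhibition expressed relative to vehicle-treated wells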
[2] = test system: gastric cancer line MKN45 cells; test: CTG (CellTiter-Glo) cell viability assay, 6×6 combo matrix, 72 h, MKN45;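 also: MKN45 cell viability read as CellTiter-Glo luminescence after 72 h culture at 37 °C under 5% CO2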
Protocol: (§1) To measure the cell inhibition effect of compounds and synergy effect of test articles on ten (10) cell lines using standard CTG assay.
(§2) 7) Using complete cell medium, adjust the volume of the suspension to achieve a cell concentration.
(§3) A549, T47D, SK-OV-3, MKN45, SK-Hep-1, HT-29, Capan-1, 786-O and LNCaP cell line, for compounds and vehicle groups, the seeding density of cell lines is 3000 cells/80 µL per well. For blank groups, add 100 µL medium. For PBS groups, add 100 µL PBS.
(§4) 8) Incubate the U87MG, A549, T47D, SK-OV-3, MKN45, SK-Hep-1, HT-29, Capan-1, 786-O and LNCaP cells overnight at 37° C./5% CO2.
(§5) Solid compound of cis-platinum was solubilized in PBS to a stock solution of 3.333 mM.
(§6) Final volume is 100 µL per well at this point.
(§7) 5) Incubate the plates at 37° C./5% CO2 for 72 hours.
(§8) 1) Incubate the plates at room temperature and away from light for 30 minutes.
(§9) 3) Add 100 µL /well of CellTiter-Glo® Reagent in each well. Avoid light.
(§10) 4) Mix contents for 2 minutes on an orbital shaker.
(§11) 5) Incubate plate at room temperature for 10 minutes to stabilize the luminescent signal.
6) Read plates in Envision.

[3] = test system: kidney cancer line 786-O cells; test: CTG (CellTiter-Glo) cell viability assay, 6×6 combo matrix, 72 h, 786-O; conditions: Homo sapiens;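 also: luminescence read-out after adding CellTiter-Glo reagent, with cells incubated at 37 °C under 5% CO2 during compound exposure, part of a ten cell line synergy study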
[4] = test system: ovarian cancer line SK-OV3 cells; test: CTG (CellTiter-Glo) cell viability assay, 6×6 combo matrix, 72 h, SK-OV-3; conditions: SK-OV-3;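 also: luminescent signal read after CellTiter-Glo addition, cells exposed to compounds for 72 h at 37 °C under 5% CO2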
Protocol: as §1, §2, §3, §4, §5, §6, §7, §8, §9, §10, §11
6) Read plates in Envision.

[5] = test system: Liver cancer line SK-HEP-1 cells; test: CTG (CellTiter-Glo) cell viability assay, 6×6 combo matrix, 72 h, SK-Hep-1; conditions: Homo sapiens;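 also: luminescent signal read after 72 h compound exposure at 37 °C under 5% CO2, with medium-only wells serving as blank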
Protocol: as §1, §2
b. A549, T47D, SK-OV-3, MKN45, SK-Hep-1, HT-29, Capan-1, 786-O and LNCaP cell line, for compounds and vehicle groups, the seeding density of cell lines is 3000 cells/80 µL per well. For blank groups, add 100 µL medium. For PBS groups, add 100 µL PBS.
as §4, §5, §6, §7, §8, §9, §10, §11
6) Read plates in Envision.

O=c1c(O)c(-c2cc(O)c(O)c(O)c2)oc2cc(O)cc(O)c12 [myricetin]
inhibition at 100 µM ([1]; read-out: Relatively Cell inhibition of vehicle control(%), myricetin 100 µM only (cisplatin plate)): 46.8%
inhibition at 100 µM ([1]; read-out: Relatively Cell inhibition of vehicle control(%), myricetin 100 µM only (doxorubicin plate)): 32.3%
inhibition at 100 µM ([1]; read-out: Relatively Cell inhibition of vehicle control(%), myricetin 100 µM only (taxol plate)): 45.7%
inhibition at 100 µM ([1]; read-out: Relatively Cell inhibition of vehicle control(%), myricetin 100 µM only (topotecan plate)): 43.4%
Relatively Cell inhibition of vehicle control(%) ([2]; Myr 0.8 µM only (Cis 0)): 5.96%
Relatively Cell inhibition of vehicle control(%) ([2]; Myr 0.8 µM only (Dox 0)): 1.79%
Relatively Cell inhibition of vehicle control(%) ([2]; Myr 0.8 µM only (Tax 0)): 0.13%
Relatively Cell inhibition of vehicle control(%) ([2]; Myr 0.8 µM only (Top 0)): -8.02%
Relatively Cell inhibition of vehicle control(%) ([2]; Myr 4 µM only (Cis 0)): 6.78%
Relatively Cell inhibition of vehicle control(%) ([2]; Myr 4 µM only (Dox 0)): 2.42%
Relatively Cell inhibition of vehicle control(%) ([2]; Myr 4 µM only (Tax 0)): -1.75%
Relatively Cell inhibition of vehicle control(%) ([2]; Myr 4 µM only (Top 0)): -4.89%
Relatively Cell inhibition of vehicle control(%) ([2]; Myr 20 µM only (Cis 0)): 14.42%
Relatively Cell inhibition of vehicle control(%) ([2]; Myr 20 µM only (Dox 0)): 13.04%
Relatively Cell inhibition of vehicle control(%) ([2]; Myr 20 µM only (Tax 0)): 5.06%
Relatively Cell inhibition of vehicle control(%) ([2]; Myr 20 µM only (Top 0)): 1.70%
Relatively Cell inhibition of vehicle control(%) ([2]; Myr 100 µM only (Cis 0), listed as Myr): 44.00%
Relatively Cell inhibition of vehicle control(%) ([2]; Myr 100 µM only (Dox 0)): 35.29%
Relatively Cell inhibition of vehicle control(%) ([2]; Myr 100 µM only (Tax 0)): 32.89%
Relatively Cell inhibition of vehicle control(%) ([2]; Myr 100 µM only (Top 0)): 29.93%
inhibition at 0.8 µM ([3]; 786-0, read-out: Relatively Cell inhibition of vehicle control, myricetin 0.8 µM only (cisplatin table)): 0.79%
inhibition at 0.8 µM ([3]; 786-0, read-out: Relatively Cell inhibition of vehicle control, myricetin 0.8 µM only (doxorubicin table)): 0.86%
inhibition at 0.8 µM ([3]; 786-0, read-out: Relatively Cell inhibition of vehicle control, myricetin 0.8 µM only (taxol table)): 0.33%
inhibition at 0.8 µM ([3]; 786-0, read-out: Relatively Cell inhibition of vehicle control, myricetin 0.8 µM only (topotecan table)): 0.12%
inhibition at 4 µM ([3]; 786-0, read-out: Relatively Cell inhibition of vehicle control, myricetin 4 µM only (cisplatin table)): 2.54%
inhibition at 4 µM ([3]; 786-0, read-out: Relatively Cell inhibition of vehicle control, myricetin 4 µM only (doxorubicin table)): 4.47%
inhibition at 4 µM ([3]; 786-0, read-out: Relatively Cell inhibition of vehicle control, myricetin 4 µM only (taxol table)): 2.6%
inhibition at 4 µM ([3]; 786-0, read-out: Relatively Cell inhibition of vehicle control, myricetin 4 µM only (topotecan table)): 4.03%
inhibition at 20 µM ([3]; 786-0, read-out: Relatively Cell inhibition of vehicle control, myricetin 20 µM only (cisplatin table)): 10.8%
inhibition at 20 µM ([3]; 786-0, read-out: Relatively Cell inhibition of vehicle control, myricetin 20 µM only (doxorubicin table)): 11.2%
inhibition at 20 µM ([3]; 786-0, read-out: Relatively Cell inhibition of vehicle control, myricetin 20 µM only (taxol table)): 9.84%
inhibition at 20 µM ([3]; 786-0, read-out: Relatively Cell inhibition of vehicle control, myricetin 20 µM only (topotecan table)): 10.4%
inhibition at 100 µM ([3]; 786-0, read-out: Relatively Cell inhibition of vehicle control, myricetin 100 µM only (cisplatin table)): 43.4%
inhibition at 100 µM ([3]; 786-0, read-out: Relatively Cell inhibition of vehicle control, myricetin 100 µM only (doxorubicin table)): 43.1%
inhibition at 100 µM ([3]; 786-0, read-out: Relatively Cell inhibition of vehicle control, myricetin 100 µM only (taxol table)): 42%
inhibition at 100 µM ([3]; 786-0, read-out: Relatively Cell inhibition of vehicle control, myricetin 100 µM only (topotecan table)): 44.8%
Relatively Cell inhibition of vehicle control(%) ([4]; Myr 0.8 µM only (cisplatin matrix)): 2.08%
Relatively Cell inhibition of vehicle control(%) ([4]; Myr 0.8 µM only (doxorubicin matrix)): 0.36%
Relatively Cell inhibition of vehicle control(%) ([4]; Myr 0.8 µM only (taxol matrix)): 0.71%
Relatively Cell inhibition of vehicle control(%) ([4]; Myr 0.8 µM only (topotecan matrix)): 4.27%
Relatively Cell inhibition of vehicle control(%) ([4]; Myr 4 µM only (cisplatin matrix)): 2.94%
Relatively Cell inhibition of vehicle control(%) ([4]; Myr 4 µM only (doxorubicin matrix)): 1.70%
Relatively Cell inhibition of vehicle control(%) ([4]; Myr 4 µM only (taxol matrix)): 0.87%
Relatively Cell inhibition of vehicle control(%) ([4]; Myr 4 µM only (topotecan matrix)): 3.31%
Relatively Cell inhibition of vehicle control(%) ([4]; Myr 20 µM only (cisplatin matrix)): 9.41%
Relatively Cell inhibition of vehicle control(%) ([4]; Myr 20 µM only (doxorubicin matrix)): 1.89%
Relatively Cell inhibition of vehicle control(%) ([4]; Myr 20 µM only (taxol matrix)): 7.54%
Relatively Cell inhibition of vehicle control(%) ([4]; Myr 20 µM only (topotecan matrix)): 0.29%
Relatively Cell inhibition of vehicle control(%) ([4]; Myr 100 µM only (cisplatin matrix)): 89.47%
Relatively Cell inhibition of vehicle control(%) ([4]; Myr 100 µM only (doxorubicin matrix)): 91.33%
Relatively Cell inhibition of vehicle control(%) ([4]; Myr 100 µM only (taxol matrix)): 87.91%
Relatively Cell inhibition of vehicle control(%) ([4]; Myr 100 µM only (topotecan matrix)): 87.18%
inhibition at 0.8 µM ([5]; SK-HEP1, read-out: Relatively Cell inhibition of vehicle control, myricetin 0.8 µM only (cisplatin table)): -11.5%
inhibition at 0.8 µM ([5]; SK-HEP1, read-out: Relatively Cell inhibition of vehicle control, myricetin 0.8 µM only (doxorubicin table)): -9.74%
inhibition at 0.8 µM ([5]; SK-HEP1, read-out: Relatively Cell inhibition of vehicle control, myricetin 0.8 µM only (taxol table)): -6.66%
inhibition at 0.8 µM ([5]; SK-HEP1, read-out: Relatively Cell inhibition of vehicle control, myricetin 0.8 µM only (topotecan table)): -19.3%
inhibition at 4 µM ([5]; SK-HEP1, read-out: Relatively Cell inhibition of vehicle control, myricetin 4 µM only (cisplatin table)): 20.2%
inhibition at 4 µM ([5]; SK-HEP1, read-out: Relatively Cell inhibition of vehicle control, myricetin 4 µM only (doxorubicin table)): 32.3%
inhibition at 4 µM ([5]; SK-HEP1, read-out: Relatively Cell inhibition of vehicle control, myricetin 4 µM only (taxol table)): 22.8%
inhibition at 4 µM ([5]; SK-HEP1, read-out: Relatively Cell inhibition of vehicle control, myricetin 4 µM only (topotecan table)): 16.8%
inhibition at 20 µM ([5]; SK-HEP1, read-out: Relatively Cell inhibition of vehicle control, myricetin 20 µM only (cisplatin table)): 92.4%
inhibition at 20 µM ([5]; SK-HEP1, read-out: Relatively Cell inhibition of vehicle control, myricetin 20 µM only (doxorubicin table)): 93.5%
inhibition at 20 µM ([5]; SK-HEP1, read-out: Relatively Cell inhibition of vehicle control, myricetin 20 µM only (taxol table)): 92.8%
inhibition at 20 µM ([5]; SK-HEP1, read-out: Relatively Cell inhibition of vehicle control, myricetin 20 µM only (topotecan table)): 93.2%
inhibition at 100 µM ([5]; SK-HEP1, read-out: Relatively Cell inhibition of vehicle control, myricetin 100 µM only (cisplatin table)): 99.6%
inhibition at 100 µM ([5]; SK-HEP1, read-out: Relatively Cell inhibition of vehicle control, myricetin 100 µM only (doxorubicin table)): 99.4%
inhibition at 100 µM ([5]; SK-HEP1, read-out: Relatively Cell inhibition of vehicle control, myricetin 100 µM only (taxol table)): 99.6%
inhibition at 100 µM ([5]; SK-HEP1, read-out: Relatively Cell inhibition of vehicle control, myricetin 100 µM only (topotecan table)): 99.4%
